Measurements from patent US5763597A, “Orally active adenosine kinase inhibitors” (priority 1996, dated 1998).
pIC50: −log10 of the molar value. Where two headings read alike, the source gives them in different places.

Legend:
rat cardiomyocytes = conditions: cited from earlier work
[1] = test system: isolated guinea pig hearts; conditions: without ADA inhibition; cited from earlier work
[2] = background; hence potentially short half life; cited from earlier work
rat brain slices = conditions: cited from earlier work
mice = conditions: cited from earlier work; for general flaccidity and spontaneous locomotor activity: interpreted to be skeletal muscle relaxation
guinea pig brain slices = conditions: cited from earlier work
isolated rat hearts = conditions: compound alone, cited from earlier work
[3] = background; cited from earlier work
dog hearts = conditions: cited from earlier work
adenosine kinase = test: AK inhibition (adenosine kinase activity, [U-14C] adenosine); format: biochemical, partially purified pig heart or recombinant human; conditions: 0.5 μM adenosine, 1 mM ATP, pH 7.0, 20 min; pig heart or recombinant human enzyme
Description: Adenosine kinase activity was measured essentially as described by Yamada et al. Biochim. Biophys. Acta 660, 3643 (1988) with a few minor modifications. Assay mixtures contained 50 mM TRIS-maleate buffer, pH 7.0, 0.1% BSA, 1 mM ATP 1 mM MgCl2, 0.5 μM [U-^14 C] adenosine (400-600 mCi/mmol) and varying duplicate concentrations of inhibitor. […] The amount of ^14 C-AMP was quantified by scintillation counting.

[4] = test system: carrageenan paw swelling in rats; test: Anti-inflammatory activity, carrageenan paw swelling; format: in vivo; conditions: rat, swelling after 3 hours; for Carrageenan Paw (% inh) ip: 10 mg/kg ip, 30 min before carrageenan; for Carrageenan Paw (% inh) po: 10 mg/kg po, 1 h before carrageenan
[5] = test system: formalin-induced pain in rats; test: Analgesic activity, formalin paw model; format: in vivo; conditions: rat, oral, 20 mg/kg; for % Inhibition Phase 1 Composite score: Phase 1 (1.7-5 min post-formalin); for % Inhibition Phase 2 Composite score: Phase 2 (10.3-30 min post-formalin); for % Inhibition Phase 2 Licking/biting: Phase 2, licking/biting incidences
Text: Pharmacol. Exper. Ther., 250:3, 915-922 (1989). See also, Life Sciences 51:171-76 (1992). These models measure pain avoidance and tolerance in response to a regulated stimulus, and compare the response of animals before and after they are given test compound. Formalin Paw Assay In this assay, injection of formalin, an irritant, into the hindpaw of rats typically evokes a biphasic response of pain-related behaviors. […] Phase I behavior is thought to be a direct effect of the irritant on nociceptors at the injection site while phase 2 behavior is thought to include a hyperalgesic component mediated by sensitization of neuronal elements within the spinal cord. Studies from other laboratories have found the first portion of Phase 2 (sometimes referred to as Phase 2a) to be most responsive to pharmacological manipulation. Rats (male, Simonsen) weighing between 100-200 g, are used in the present experiments. For screening purposes drugs are administered orally 90 min prior to initiation of formalin test. […] The rat is then immediately placed in a separate plexiglass box and scoring (described below) of the animal's behavior is begun at 1.7 min after formalin injection. […] This sequence is repeated over a 30 min period. […] Scores are continuously recorded directly onto an Excel spreadsheet.

[6] = test system: hot plate pain response in male SA rats; test: Analgesic activity, hot plate; format: in vivo; conditions: rat, po
Text: Ther., 250:3, 915-922 (1989). See also, Life Sciences 51:171-76 (1992). These models measure pain avoidance and tolerance in response to a regulated stimulus, and compare the response of animals before and after they are given test compound.

[7] = Oral bioavailability in dogs; format: in vivo, female beagle dogs; conditions: dog, 10 mg/kg oral versus iv, dose-corrected AUC to infinity, PEG-400
Description: Oral bioavailability was determined by comparing the dose corrected areas under the plasma-concentration time curve (AUC) to infinity for the each tested compound, given orally and intravenously in dogs. […] One dog received this solution at an infusion rate of 0.1 mL/min for 20 minutes. The other dog received a 0.2 mL/in infusion for 10 minutes. […] The plasma was separated within 10 minutes of blood collection and was stored frozen. The plasma concentration of compound was then determined for these IV infusions. […] The plasma concentration of compound was determined for this oral administration. The samples were assayed for intact adenosine kinase inhibitor by high performance liquid chromatography (HPLC). An internal standard was added to each test sample and standard sample. Each was then extracted with 10 volumes of 1% v/v dimethylsulfoxide in acetonitrile. […] The dried residue was reconstituted in mobile phase and the contents were analyzed for the adenosine kinase inhibitor (AKI) on HPLC. […] Pharmacokinetic parameters were calculated from the plasma concentration vs. time data, using standard non-compartmental methods. […] (1983).

[8] = test system: maximal electroshock seizures (hind limb tonic extension) in male SA rats; test: Anticonvulsant activity, maximal electroshock (MES) model; format: in vivo; conditions: rat
[9] = po, fasted overnight, ">>" (written >) = no activity at stated dose, read-out: Anticonvulsant ED50 (MES) po
[10] = ip, ">5" = HTE inhibited in fewer than 50% of animals at 5 mg/kg screen, ">>" (written >) = no activity, "<" = maximal activity at stated dose, read-out: Anticonvulsant ED50 (MES) ip

OC[C@H]1O[C@@H](n2cnc3c2N=CNC[C@H]3O)C[C@@H]1O [2'-deoxycoformycin]
effect on adenosine release from the cells (rat cardiomyocytes; adenosine deaminase inhibition): no effect on adenosine release from the cells

NC[C@H]1O[C@@H](n2cnc3c(N)ncnc32)[C@H](O)[C@@H]1O [5'-amino-5'-deoxyadenosine]
adenosine release in the absence of ADA inhibition [1]: These effects were not apparent in the absence of ADA inhibition | susceptibility to deamination [2]: susceptibility of 5'-amino-5'-deoxyadenosine to deamination | increase in adenosine release (rat cardiomyocytes; together with ADA inhibition): 6 fold

C[C@H]1O[C@@H](n2cc(I)c3c(N)ncnc32)[C@H](O)[C@@H]1O [5'-deoxy-5-iodotubercidin]
adenosine uptake, rat brain slices (rat brain slices): adenosine uptake was reportedly inhibited | body temperature (hypothermia) (mice): hypothermia | general flaccidity and spontaneous locomotor activity (mice): pronounced general flaccidity and much-reduced spontaneous locomotor activity | adenosine uptake, guinea pig brain slices (guinea pig brain slices): adenosine uptake was reportedly inhibited

Nc1ncnc2c1c(I)cn2[C@@H]1O[C@H](CO)[C@@H](O)[C@H]1O [5-iodotubercidin]
adenosine uptake, rat brain slices (rat brain slices): adenosine uptake was reportedly inhibited | perfusate adenosine concentration, hypoxic, anoxic or ischemic (isolated rat hearts; hypoxic, anoxic or ischemic conditions): no increase in perfusate adenosine concentration | perfusate adenosine concentration, normoxic (isolated rat hearts; normoxic conditions): no increase in perfusate adenosine concentration | body temperature (hypothermia) (mice): hypothermia | general flaccidity and spontaneous locomotor activity (mice): pronounced general flaccidity and much-reduced spontaneous locomotor activity | adenosine uptake, guinea pig brain slices (guinea pig brain slices): adenosine uptake was reportedly inhibited | cytotoxicity [3]: cytotoxicity of 5-iodotubercidin | effects in dog heart ischemia and reperfusion (dog hearts): inconsistent effects

C[C@H]1O[C@@H](n2cc(-c3ccccc3)c3c(Nc4ccc(F)cc4)ncnc32)[C@H](O)[C@@H]1O [compound 1]
pIC50 (adenosine kinase): 7.96 | Carrageenan Paw (% inh) ip [4]: 3.5 % inh | Carrageenan Paw (% inh) po [4]: 0.2 % inh | % Inhibition Phase 1 Composite score [5]: 7.4% | % Inhibition Phase 2 Composite score [5]: 33.3% | % Inhibition Phase 2 Licking/biting [5]: 59% | ED50 [6]: 16.6 mg/kg

C[C@H]1O[C@@H](n2cc(-c3ccc(F)cc3)c3c(Nc4ccc(F)cc4)ncnc32)[C@H](O)[C@@H]1O [compound 2]
% Oral Availability [7]: 47%

CCOc1ccc(Nc2ncnc3c2c(-c2ccccc2)cn3[C@@H]2O[C@H](C)[C@@H](O)[C@H]2O)cc1 [compound 28]
pIC50 (adenosine kinase): 8.40 | Carrageenan Paw (% inh) ip [4]: 22.2 % inh | Carrageenan Paw (% inh) po [4]: 31.0 % inh | % Inhibition Phase 1 Composite score [5]: 22.5% | % Inhibition Phase 2 Composite score [5]: 46.8% | % Inhibition Phase 2 Licking/biting [5]: 83%

CC(=O)Nc1ccc(Nc2ncnc3c2c(-c2ccccc2)cn3[C@@H]2O[C@H](C)[C@@H](O)[C@H]2O)cc1 [compound 32]
pIC50 (adenosine kinase): 9.30 | % Inhibition Phase 1 Composite score [5]: 0% | % Inhibition Phase 2 Composite score [5]: 30.9% | % Inhibition Phase 2 Licking/biting [5]: 56% | ED50 [8, 9]: > 10 mg/kg

C[C@H]1O[C@@H](n2cc(-c3ccccc3)c3c(Nc4ccc(S(N)(=O)=O)cc4)ncnc32)[C@H](O)[C@@H]1O [compound 34]
pIC50 (adenosine kinase): 8.30 | Carrageenan Paw (% inh) ip [4]: 1.7 % inh | Carrageenan Paw (% inh) po [4]: 0 % inh | ED50 [8, 9]: > 10 mg/kg

C[C@H]1O[C@@H](n2cc(-c3ccccc3)c3c(Nc4ccc(N)cc4)ncnc32)[C@H](O)[C@@H]1O [compound 43]
pIC50 (adenosine kinase): 8.52 | ED50 [8, 10]: 5 mg/kg

[N-]=[N+]=NC[C@H]1O[C@@H](n2nc(-c3cccs3)c3c(Nc4ccccc4)ncnc32)[C@H](O)[C@@H]1O [compound 97]
pIC50 (adenosine kinase): 8.00 | Anticonvulsant ED50 (MES) ip ([8]; ip, ">5" = HTE inhibited in fewer than 50% of animals at 5 mg/kg screen, ">>" (written >) = no activity, "<" = maximal activity at stated dose): > 5 mg/kg

CCOC(=O)Cc1ccc(Nc2ncnc3c2c(-c2ccccc2)cn3[C@@H]2O[C@H](C)[C@@H](O)[C@H]2O)cc1 [compound 127]
pIC50 (adenosine kinase): 8.70 | Carrageenan Paw (% inh) ip [4]: 5.4 % inh | Carrageenan Paw (% inh) po [4]: 2.9 % inh | ED50 [8, 10]: 5 mg/kg

C[C@H]1O[C@@H](n2cc(-c3ccc(CO)cc3)c3c(Nc4ccccc4)ncnc32)[C@H](O)[C@@H]1O [compound 130]
pIC50 (adenosine kinase): 8.22 | Carrageenan Paw (% inh) ip [4]: 0.0 % inh | Carrageenan Paw (% inh) po [4]: 3.9 % inh | ED50 [8, 10]: > 5 mg/kg
